System: Acinetobacter baumannii strains
Assay: Antibiotic susceptibility test (CLSI disk diffusion test method, read per CLSI 2016); also: key: ‘S’ means susceptible; ‘I’ means intermediate; ‘R’ means resistant
Format: cell-based

CCN1CCN(C(=O)N[C@@H](C(=O)N[C@@H]2C(=O)N3[C@@H]2SC(C)(C)[C@@H]3C(=O)O)c2ccccc2)C(=O)C1=O [Piperacillin, piperacillin]
S: susceptibility category (S/I/R) (host strain YMC17/02/B4864)
R: antibiotic susceptibility class (host strain YMC14/01/C29) | antibiotic susceptibility class (host strain YMC14/01/IP122) | antibiotic susceptibility class (host strain YMC14/01/L8) | antibiotic susceptibility class (host strain YMC14/01/P31) | antibiotic susceptibility class (host strain YMC14/01/P117) | antibiotic susceptibility class (host strain YMC14/01/P224) | antibiotic susceptibility class (host strain YMC14/01/P727) | antibiotic susceptibility class (host strain YMC14/01/P728) | antibiotic susceptibility class (host strain YMC14/01/R130) | antibiotic susceptibility class (host strain YMC14/01/R160) | antibiotic susceptibility class (host strain YMC14/01/R198) | antibiotic susceptibility class (host strain YMC14/01/R257) | antibiotic susceptibility class (host strain YMC14/01/R270) | antibiotic susceptibility class (host strain YMC14/01/R324) | antibiotic susceptibility class (host strain YMC14/01/R443) | antibiotic susceptibility class (host strain YMC14/01/R451) | antibiotic susceptibility class (host strain YMC14/01/R560) | antibiotic susceptibility class (host strain YMC14/01/R617) | antibiotic susceptibility class (host strain YMC14/01/R671) | antibiotic susceptibility class (host strain YMC14/01/R732) | antibiotic susceptibility class (host strain YMC14/01/R767) | antibiotic susceptibility class (host strain YMC14/01/R904) | antibiotic susceptibility class (host strain YMC14/01/R905) | antibiotic susceptibility class (host strain YMC14/01/R921) | antibiotic susceptibility class (host strain YMC14/01/R941) | antibiotic susceptibility class (host strain YMC14/01/R958) | antibiotic susceptibility class (host strain YMC14/01/R1006) | antibiotic susceptibility class (host strain YMC14/01/R1199) | antibiotic susceptibility class (host strain YMC14/01/R1659) | antibiotic susceptibility class (host strain YMC14/01/R1722) | antibiotic susceptibility class (host strain YMC14/01/R1752) | antibiotic susceptibility class (host strain YMC14/01/R2429) | antibiotic susceptibility class (host strain YMC14/01/R2572) | antibiotic susceptibility class (host strain YMC14/01/R2855) | antibiotic susceptibility class (host strain YMC14/01/R2945) | antibiotic susceptibility class (host strain YMC14/01/R3007) | antibiotic susceptibility class (host strain YMC14/01/R3129) | antibiotic susceptibility class (host strain YMC14/01/R3317) | antibiotic susceptibility class (host strain YMC14/01/R3474) | antibiotic susceptibility class (host strain YMC14/01/R3574) | antibiotic susceptibility class (host strain YMC14/01/U313) | antibiotic susceptibility class (host strain YMC14/01/U318) | antibiotic susceptibility class (host strain YMC14/02/L18) | antibiotic susceptibility class (host strain YMC14/02/P47) | antibiotic susceptibility class (host strain YMC14/02/R1860) | antibiotic susceptibility class (host strain YMC14/02/R2417) | antibiotic susceptibility class (host strain YMC14/02/R2599) | antibiotic susceptibility class (host strain YMC14/02/R2668) | antibiotic susceptibility class (host strain YMC14/02/R2758) | antibiotic susceptibility class (host strain YMC14/02/R2781) | antibiotic susceptibility class (host strain YMC14/02/R3106) | antibiotic susceptibility class (host strain YMC14/02/R3419) | antibiotic susceptibility class (host strain YMC14/02/U1607) | antibiotic susceptibility class (host strain YMC14/03/L9) | antibiotic susceptibility class (host strain YMC14/03/P471) | antibiotic susceptibility class (host strain YMC14/03/R122) | antibiotic susceptibility class (host strain YMC14/03/R217) | antibiotic susceptibility class (host strain YMC14/03/R380) | antibiotic susceptibility class (host strain YMC14/03/R618) | antibiotic susceptibility class (host strain YMC14/03/R2144) | antibiotic susceptibility class (host strain YMC14/03/U4616) | antibiotic susceptibility class (host strain YMC14/04/R1078) | antibiotic susceptibility class (host strain YMC14/04/R1080) | susceptibility category (S/I/R) (host strain YMC14/06/R2359) | susceptibility category (S/I/R) (host strain YMC14/08/R1169) | susceptibility category (S/I/R) (host strain YMC14/08/T90) | susceptibility category (S/I/R) (host strain YMC15/02/R436) | susceptibility category (S/I/R) (host strain YMC15/02/T28) | susceptibility category (S/I/R) (host strain YMC15/03/R1604) | susceptibility category (S/I/R) (host strain YMC15/09/R1869) | susceptibility category (S/I/R) (host strain YMC16/01/P11) | susceptibility category (S/I/R) (host strain YMC16/01/R123) | susceptibility category (S/I/R) (host strain YMC16/01/R198) | susceptibility category (S/I/R) (host strain YMC16/01/R353) | susceptibility category (S/I/R) (host strain YMC16/01/R380) | susceptibility category (S/I/R) (host strain YMC16/01/R397) | susceptibility category (S/I/R) (host strain YMC16/01/R405) | susceptibility category (S/I/R) (host strain YMC16/03/R4461) | susceptibility category (S/I/R) (host strain YMC16/05/R2210) | susceptibility category (S/I/R) (host strain YMC16/07/R2512) | susceptibility category (S/I/R) (host strain YMC16/09/R2471) | susceptibility category (S/I/R) (host strain YMC16/10/R2537) | susceptibility category (S/I/R) (host strain YMC16/12/B11422) | susceptibility category (S/I/R) (host strain YMC16/12/B11449) | susceptibility category (S/I/R) (host strain YMC16/12/B13325) | susceptibility category (S/I/R) (host strain YMC16/12/P503) | susceptibility category (S/I/R) (host strain YMC16/12/R4637) | susceptibility category (S/I/R) (host strain YMC17/01/B8053) | susceptibility category (S/I/R) (host strain YMC17/01/B10087) | susceptibility category (S/I/R) (host strain YMC17/01/B12075) | susceptibility category (S/I/R) (host strain YMC17/01/B13454) | susceptibility category (S/I/R) (host strain YMC17/01/P518) | susceptibility category (S/I/R) (host strain YMC17/01/R2812) | susceptibility category (S/I/R) (host strain YMC17/02/B14) | susceptibility category (S/I/R) (host strain YMC17/02/B87) | susceptibility category (S/I/R) (host strain YMC17/02/B721) | susceptibility category (S/I/R) (host strain YMC17/02/B4039) | susceptibility category (S/I/R) (host strain YMC17/02/B4520) | susceptibility category (S/I/R) (host strain YMC17/02/B8414) | susceptibility category (S/I/R) (host strain YMC17/02/P523) | susceptibility category (S/I/R) (host strain YMC17/02/R541) | susceptibility category (S/I/R) (host strain YMC17/02/R2392) | susceptibility category (S/I/R) (host strain YMC17/03/B4730) | susceptibility category (S/I/R) (host strain YMC17/03/B5000) | susceptibility category (S/I/R) (host strain YMC17/03/P971) | susceptibility category (S/I/R) (host strain YMC17/03/R348) | susceptibility category (S/I/R) (host strain YMC17/03/R585) | susceptibility category (S/I/R) (host strain YMC17/03/R1888) | susceptibility category (S/I/R) (host strain YMC17/03/R3279) | susceptibility category (S/I/R) (host strain YMC17/03/R4077) | susceptibility category (S/I/R) (host strain YMC17/03/R4607) | susceptibility category (S/I/R) (host strain YMC17/04/R488) | susceptibility category (S/I/R) (host strain YMC17/04/R640) | susceptibility category (S/I/R) (host strain YMC/17/05/R1095)

Source: patent US20240000872A1, “NOVEL BACTERIOPHAGE THAT LYSES ACINETOBACTER GENUS BACTERIA HAVING RESISTANCE TO ANTIBIOTICS” (priority 2020, published 2024)
